What was measured:
[1] = test system: pS6K1 (p-p70 S6 Kinase (Thr389)) in MCF-7 cells; assay: AlphaLISA Ultra pS6K1 assay; assay type: cell-based; conditions: Homo sapiens, MCF7, 2 h, 2 hours compound incubation
Protocol: Example 155: AlphaLISA Ultra pS6K1 assay
(§1) Assay Protocol: • 1. Seed MCF-7 cells in Corning 3701 plate and incubate for 20˜24 hour. 12,000˜16,000 cells will be seeded in 36 μL medium per well. • 2. Change the culture medium with fresh medium and incubate for another 2 hours. • 3. Add 12 μL (4×) compounds into the cell plate by HAMILTON. Final DMSO concentration is 0.5%. Incubate for 2 hours. • 4. Aspirate 38 μL by HAMILTON, 10 μL rest per well. • 5. Add 10 μL 2× lysis buffer using HAMILTON; total volume in wells is 20 μL. Allow cells to shake for 30 min. Cover plate by plastic foil and store plate at −80° C. up to analysis. • 6. Thaw cell lysate at RT and transfer 10 ul lysate to assay plate (Optiplate-384). • 7. Add 5 ul acceptor beads into assay plate and incubation for 2 hours • 8. Add 5 ul donor beads and incubation for 2 hours • 9. Count the plate by EnSpire Multimode Plate Reader

[2] = test system: pAKT (p-Akt 1/2/3 (Ser473)) in MCF-7 cells; assay: AlphaLISA Ultra pAKT assay; assay type: cell-based; conditions: Homo sapiens, MCF7, 2 hours compound incubation
Protocol: Example 156: AlphaLISA Ultra pAKT Assay
as §1, with “1.” for “1. Seed”, “for 20-24” for “for 20˜24”, “hour. 16,000-20,000” for “hour. 12,000˜16,000”, “38 j L” for “38 μL”

SMILES	IC50 [1] [µM]	IC50 [2] [µM]
Cc1cc(C)c(C(=O)N2CCN(c3cccnn3)CC2)cc1NC1CCN(c2ccccc2C#N)CC1 [I-70, 2-[4-({2,4-Dimethyl-5-[4-(pyridazin-3-yl)piperazine-1-carbonyl]phenyl}amino)piperidin-1-yl]benzonitrile]	3 to 5	> 10
Cc1cc(C)c(C(=O)N2CCN(c3ccc(F)cn3)C(=O)C2)cc1NC1CCN(c2ccccc2C#N)CC1 [I-72, 2-[4-({5-[4-(5-Fluoropyridin-2-yl)-3-oxopiperazine-1-carbonyl]-2,4-dimethylphenyl}amino)piperidin-1-yl]benzonitrile]	3 to 5	> 10
Cc1cc(C)c(C(=O)N2CCN(c3ccccc3)C(CO)C2)cc1NC1CCN(c2ccccc2)C1 (centres unmarked) [I-73, (4-{2,4-Dimethyl-5-[(1-phenylpyrrolidin-3-yl)amino]benzoyl}-1-phenylpiperazin-2-yl)methanol]	3 to 5	> 10
Cc1cc(C)c(C(=O)N2CCN(c3ccc(F)cc3)C(CO)C2)cc1NC1CCN(c2ccccc2C#N)CC1 (centres unmarked) [I-76, 2-[4-({5-[4-(4-fluorophenyl)-3-(hydroxymethyl)piperazine-1-carbonyl]-2,4-dimethylphenyl}amino)piperidin-1-yl]benzonitrile]	0.01 to 1	> 10
Cc1ccc(NC2CCN(c3ccccc3C#N)CC2)c(C)c1C(=O)N1CCN(c2cccc(F)c2S(N)(=O)=O)CC1 [I-87, 2-(4-(3-(1-(2-cyanophenyl)piperidin-4-ylamino)-2,6-dimethylbenzoyl)piperazin-1-yl)-6-fluorobenzenesulfonamide]	1 to 3	> 10
Cc1cc(C)c(C(=O)N2CCN(c3cccc(F)c3S(N)(=O)=O)CC2)cc1NC1CCN(c2c(F)cccc2C#N)CC1 [I-92, 2-(4-(5-(1-(2-Cyano-6-fluorophenyl)piperidin-4-ylamino)-2,4-dimethylbenzoyl)piperazin-1-yl)-6-fluorobenzenesulfonamide]	1 to 3	> 10
Cc1cc(C)c(C(=O)N2CCN(c3ncccc3[S@](C)(=N)=O)CC2)cc1NC1CCN(c2ccccc2C#N)CC1 [I-94, (R)-2-(4-(2,4-Dimethyl-5-(4-(3-(S-methylsulfonimidoyl)pyridin-2-yl)piperazine-1-carbonyl)phenylamino)piperidin-1-yl)benzonitrile]	1 to 3	> 10
Cc1cc(C)c(C(=O)N2CCN(C(C)C)[C@H](CO)C2)cc1NC1CCN(c2ccccc2C#N)CC1 [I-95, (S)-2-(4-(5-(3-(Hydroxymethyl)-4-isopropylpiperazine-1-carbonyl)-2,4-dimethylphenylamino)piperidin-1-yl)benzonitrile]	> 10	> 10
Cc1cc(C)c(C(=O)N2CCN(CC(F)(F)F)[C@@H](CO)C2)cc1NC1CCN(c2ccccc2C#N)CC1 [I-96, (R)-2-(4-(5-(3-(Hydroxymethyl)-4-(2,2,2-trifluoroethyl)piperazine-1-carbonyl)-2,4-dimethylphenylamino)piperidin-1-yl)benzonitrile]	3 to 5	> 10
Cc1cc(C)c(C(=O)N2CCN(CC(F)(F)F)[C@H](CO)C2)cc1NC1CCN(c2ccccc2C#N)CC1 [I-98, (S)-2-(4-(5-(3-(Hydroxymethyl)-4-(2,2,2-trifluoroethyl)piperazine-1-carbonyl)-2,4-dimethylphenylamino)piperidin-1-yl)benzonitrile]	5 to 10	> 10
Cc1cc(C)c(C(=O)N2CCN(c3cc(F)ccn3)[C@@H](CO)C2)cc1NC1CCN(c2ccccc2C#N)CC1 [I-99, (R)-2-(4-(5-(4-(4-Fluoropyridin-2-yl)-3-(hydroxymethyl)piperazine-1-carbonyl)-2,4-dimethylphenylamino)piperidin-1-yl)benzonitrile]	1 to 3	> 10
Cc1cccc(N2CCN(C(=O)c3cc(NC4CCN(c5ccccc5C#N)CC4)c(C)cc3C)C[C@@H]2CO)n1 [I-101, (R)-2-(4-(5-(3-(Hydroxymethyl)-4-(6-methylpyridin-2-yl)piperazine-1-carbonyl)-2,4-dimethylphenylamino)piperidin-1-yl)benzonitrile]	1 to 3	> 10
Cc1cc(C)c(C(=O)N2CCN(c3ccc(F)cc3S(N)(=O)=O)CC2)nc1NC1CCN(c2ccccc2C#N)CC1 [I-103, 2-(4-(6-(1-(2-cyanophenyl)piperidin-4-ylamino)-3,5-dimethylpicolinoyl)piperazin-1-yl)-5-fluorobenzenesulfonamide]	1 to 3	> 10
Cc1cc(C)c(C(=O)N2CCN(c3cc(F)c(F)cc3S(N)(=O)=O)CC2)cc1NC1CCN(c2ccccc2C#N)CC1 [I-104, 2-(4-(5-(1-(2-Cyanophenyl)piperidin-4-ylamino)-2,4-dimethylbenzoyl)piperazin-1-yl)-4,5-difluorobenzenesulfonamide]	0.01 to 1	> 10
COc1cc(C)c(NC2CCN(c3ccccc3C#N)CC2)cc1C(=O)N1CCN(c2ccccc2S(N)(=O)=O)CC1 [I-105, 2-(4-(5-(1-(2-Cyanophenyl)piperidin-4-ylamino)-2-methoxy-4-methylbenzoyl)piperazin-1-yl)benzenesulfonamide]	1 to 3	> 10

More lines, now with the values ahead:

IC50 [1] [µM]	IC50 [2] [µM]	SMILES
0.01 to 1	> 10	Cc1cc(C)c(C(=O)N2CCN(c3ccccc3C#N)CC2)cc1NC1CCN(c2ccccc2C#N)CC1 [I-71, 2-[4-({5-[4-(2-Cyanophenyl)piperazine-1-carbonyl]-2,4-dimethylphenyl}amino)piperidin-1-yl]benzonitrile]
0.01 to 1	> 10	Cc1cc(C)c(C(=O)N2CCN(c3ccccc3F)C(CO)C2)cc1NC1CCN(c2ccccc2C#N)CC1 (centres unmarked) [I-74, 2-[4-({5-[4-(2-Fluorophenyl)-3-(hydroxymethyl)piperazine-1-carbonyl]-2,4-dimethylphenyl}amino)piperidin-1-yl]benzonitrile]
1 to 3	> 10	Cc1cc(C)c(C(=O)N2CCN(c3ccccc3C#N)CC2)cc1NC1CCCN(c2ccc(C#N)cc2)CC1 (centres unmarked) [I-80, 2-[4-(5-{[1-(4-cyanophenyl)azepan-4-yl]amino}-2,4-dimethylbenzoyl)piperazin-1-yl]benzonitrile]
> 10	> 10	Cc1cc(C)c(C(=O)N2CCN(c3ccccc3C#N)CC2)cc1NC1CCCN(c2cccc(C#N)c2)CC1 (centres unmarked) [I-81, 2-[4-(5-{[1-(3-cyanophenyl)azepan-4-yl]amino}-2,4-dimethylbenzoyl)piperazin-1-yl]benzonitrile]
> 10	> 10	Cc1cc(C#N)c(NC2CCN(c3ccccc3C#N)CC2)cc1C(=O)N1CCN(c2ccccc2S(N)(=O)=O)CC1 [I-86, 2-(4-(4-Cyano-5-(1-(2-cyanophenyl)piperidin-4-ylamino)-2-methylbenzoyl)piperazin-1-yl)benzenesulfonamide]
3 to 5	> 10	Cc1cc(F)c(NC2CCN(c3ccccc3C#N)CC2)cc1C(=O)N1CCN(c2ccccc2S(N)(=O)=O)CC1 [I-90, 2-(4-(5-(1-(2-cyanophenyl)piperidin-4-ylamino)-4-fluoro-2-methylbenzoyl)piperazin-1-y)benzenesulfonamide]
> 10	> 10	Cc1cc(C)c(C(=O)NC2CCN(c3ccccc3C#N)CC2)cc1NC1CCN(c2ccccc2C#N)CC1 [I-97, N-(1-(2-Cyanophenyl)piperidin-4-yl)-5-(1-(2-cyanophenyl)piperidin-4-ylamino)-2,4-dimethylbenzamide]

— US10844013B2, “Phenyl amino piperidine mTORC inhibitors and uses thereof” (Navitor Pharmaceuticals, Inc., priority 2016, dated 2020)
